This is an account of results in BindingDB's records for doi:10.1016/j.bmc.2018.06.029 (East China University of Science & Technology, 2018).

pIC50: −log10 of the molar value. Where only a bound is given, the exact number is not on record here.

One may read the pIC50 as −log10 of the IC50, conventionally taken in molar units. Low values mean a large IC50, high ones a small IC50.

For this assay, the target named is Tyrosine-protein kinase SYK (Homo sapiens) (UniProt P43405). Kind of assay: Inhibition of SYK (unknown origin) using FAM-labeled peptide as substrate preincubated for 10 mins followed by substrate addition measured after 25 mins.

As to `COc1cc(Nc2nc(N3CCC(NC(=O)c4ccc(C(=O)O)cn4)C3)nc3c2COC3)cc(OC)c1OC` (stereo unspecified), the pIC50 was 4.85.

`COCCCNc1nc(N2CCC(NC(=O)c3ccc(C(=O)O)cn3)C2)nc2c1COC2` (stereo unspecified) showed a pIC50 of less than 4.30.

For the molecule `CCc1ccc(Nc2nc(N3CCC(NC(=O)c4ccc(C(=O)O)cn4)C3)nc3c2COC3)cc1` (stereo unspecified), the pIC50 is 4.72.

As for `COc1ccc(Nc2nc(N3CCC(NC(=O)c4ccc(C(=O)O)cn4)C3)nc3c2COC3)cc1` (stereo unspecified), the pIC50 was 4.49.

For `CCOCCCNc1nc(N2CCC(NC(=O)c3ccc(C(=O)O)cn3)C2)nc2c1COC2` (stereo unspecified), the pIC50 was less than 4.30.

As to `COc1ccc(Nc2nc(N3CCC(NC(=O)c4ccc(C(=O)O)cn4)C3)nc3c2COC3)cc1OC` (stereo unspecified), the pIC50 is 4.63.

With `Cc1ccc(Nc2nc(N3CCC(NC(=O)c4ccc(C(=O)O)cn4)C3)nc3c2COC3)cc1` (stereo unspecified), the pIC50 was 4.68.

Turning to `O=C(O)c1ccc(C(=O)NC2CCN(c3nc4c(c(NC5CCCCC5)n3)COC4)C2)nc1` (stereo unspecified), the pIC50 was 4.87.

The molecule `COC(=O)c1ccc(C(=O)NC2CCN(c3nc4c(c(Nc5ccc(OC)c(OC)c5)n3)CCC4)C2)cc1` (stereo unspecified) had a pIC50 of less than 4.30.

In the case of `CCCCCNc1nc(N2CCC(NC(=O)c3ccc(C(=O)O)cn3)C2)nc2c1COC2` (stereo unspecified), the pIC50 was less than 4.30.

Regarding `O=C(O)c1ccc(C(=O)NC2CCN(c3nc4c(c(Nc5ccc6c(c5)OCCO6)n3)COC4)C2)nc1` (stereo unspecified), the pIC50 is 4.69.

Turning to `Cc1ccc(Nc2nc(N3CCC(NC(=O)c4ccc(C(=O)O)cn4)C3)nc3c2COC3)cc1C` (stereo unspecified), the pIC50 is 4.81.

In turn, `CCCCCCNc1nc(N2CCC(NC(=O)c3ccc(C(=O)O)cn3)C2)nc2c1COC2` (stereo unspecified) gave a pIC50 of 5.01.

The molecule `COc1ccc(Nc2nc(N3CCC(NC(=O)c4ccc(C(=O)O)cc4)C3)nc3c2CCC3)cc1OC` (stereo unspecified) showed a pIC50 of 4.60.

Take `COc1cc(Nc2nc(N3CCC(NC(=O)c4ccc(C(=O)O)cn4)C3)nc3c2COC3)cc(OC)c1` (stereo unspecified): the pIC50 was 4.68. The pIC50 values of the last two molecules are within 0.2 log units of each other.

In the case of `CCCCCCCNc1nc(N2CCC(NC(=O)c3ccc(C(=O)O)cn3)C2)nc2c1COC2` (stereo unspecified), the pIC50 was 4.94.
